Consider one compound from paper PMC3657136, “An antibacterial from Hypericum acmosepalum inhibits ATP-dependent MurE ligase from Mycobacterium tuberculosis” (International Journal of Antimicrobial Agents, 2012).

For this assay, the target named is T1, ATP-dependent MurE ligase (Mycobacterium tuberculosis, UniProt P9WJL3).
T1 sequence (P9WJL3 1-535): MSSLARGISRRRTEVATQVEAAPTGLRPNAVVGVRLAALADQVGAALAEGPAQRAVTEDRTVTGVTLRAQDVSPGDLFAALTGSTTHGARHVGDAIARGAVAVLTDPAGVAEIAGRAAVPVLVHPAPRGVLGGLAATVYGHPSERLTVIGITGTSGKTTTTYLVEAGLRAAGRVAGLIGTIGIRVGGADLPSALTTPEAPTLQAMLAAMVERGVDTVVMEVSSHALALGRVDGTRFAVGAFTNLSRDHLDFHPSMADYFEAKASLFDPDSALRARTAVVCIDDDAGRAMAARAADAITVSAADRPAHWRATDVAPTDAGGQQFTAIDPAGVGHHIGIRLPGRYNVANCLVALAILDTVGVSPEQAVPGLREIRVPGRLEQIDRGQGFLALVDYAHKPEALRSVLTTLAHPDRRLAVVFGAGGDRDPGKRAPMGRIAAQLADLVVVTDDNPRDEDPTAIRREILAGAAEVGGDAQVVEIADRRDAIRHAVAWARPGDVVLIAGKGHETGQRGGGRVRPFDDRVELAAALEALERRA
The experiment in a line: biochemical.

For `C=CC(C)(C)c1c(OC)oc(-c2ccccc2)cc1=O` [compound 2, hyperenone A], the IC50 (as a rule, the concentration needed to halve the response being measured) is 320 µM.
